Reference: the supplement of paper PMC10307832

Legend:
Assay in all cases: relative viability (nuclei count vs DMSO), 5 days (fraction); higher = more cells survive
NCI-H2405 = tested on: NCI-H2405
Method in brief: (§1)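 The day after seeding in 1536-well plates, lung cancer cell lines were treated by pin tool with a single drug, or with a fixed anchor-drug dose together with five library-drug doses (not always all listed) in √10 steps. After 5 days, a combined fix-and-stain solution (final 0.05% Triton X-100, 1% formaldehyde, 1 ug/ml Hoechst) was added. Nuclei counted on 4× images gave relative viability as treated counts over vehicle counts, reported as the median of duplicate plates.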

NCI-H1650 = tested on: NCI-H1650
Method in brief: as §1

NCI-H441 = tested on: NCI-H441
Method in brief: as §1

H3255 = tested on: H3255
Method in brief: as §1

HCC-827 = tested on: HCC-827
Method in brief: as §1

LXF-289 = tested on: LXF-289
Method in brief: as §1

UMC-11 = tested on: UMC-11
Method in brief: as §1

LK-2 = tested on: LK-2
Method in brief: as §1

NCI-H1993 = tested on: NCI-H1993
Method in brief: as §1

LCLC-97TM1 = tested on: LCLC-97TM1
Method in brief: as §1

EPLC-272H = tested on: EPLC-272H
Method in brief: as §1

LU99A = tested on: LU99A
Method in brief: as §1

SW 1573 = tested on: SW 1573
Method in brief: as §1

ChaGo-K-1 = tested on: ChaGo-K-1
Method in brief: as §1

NCI-H1355 = tested on: NCI-H1355
Method in brief: as §1

NCI-H3122 = tested on: NCI-H3122
Method in brief: as §1

EKVX = tested on: EKVX
Method in brief: as §1

NCI-H2228 = tested on: NCI-H2228
Method in brief: as §1

NCI-H2170 = tested on: NCI-H2170
Method in brief: as §1

SK-LU-1 = tested on: SK-LU-1
Method in brief: as §1

HOP-62 = tested on: HOP-62
Method in brief: as §1

PC-3 [JPC-3] = tested on: PC-3 [JPC-3]
Method in brief: as §1

Cc1cn(-c2cc(NC(=O)c3ccc(C)c(Nc4nccc(-c5cccnc5)n4)c3)cc(C(F)(F)F)c2)cn1 [Nilotinib] + CS(=O)(=O)N1CCN(Cc2cc3nc(-c4cccc5[nH]ncc45)nc(N4CCOCC4)c3s2)CC1 [Pictilisib] (partner 1 µM)
relative viability (NCI-H2405; first compound 0.001 µM): 0.426 | relative viability (NCI-H2405; first compound 0.003162 µM): 0.404 | relative viability (NCI-H2405; first compound 0.01 µM): 0.315 | relative viability (NCI-H2405; first compound 0.03162 µM): 0.296 | relative viability (NCI-H2405; first compound 0.1 µM): 0.345 | relative viability (NCI-H1650; first compound 0.001 µM): 0.534 | relative viability (NCI-H1650; first compound 0.003162 µM): 0.709 | relative viability (NCI-H1650; first compound 0.01 µM): 0.562 | relative viability (NCI-H1650; first compound 0.03162 µM): 0.546 | relative viability (NCI-H1650; first compound 0.1 µM): 0.288 | relative viability (NCI-H441; first compound 0.001 µM): 0.371 | relative viability (NCI-H441; first compound 0.003162 µM): 0.576 | relative viability (NCI-H441; first compound 0.01 µM): 0.532 | relative viability (NCI-H441; first compound 0.1 µM): 0.305 | relative viability (H3255; first compound 0.001 µM): 0.44 | relative viability (H3255; first compound 0.003162 µM): 0.438 | relative viability (H3255; first compound 0.01 µM): 0.57 | relative viability (H3255; first compound 0.03162 µM): 0.416 | relative viability (H3255; first compound 0.1 µM): 0.441 | relative viability (HCC-827; first compound 0.001 µM): 0.685 | relative viability (HCC-827; first compound 0.003162 µM): 0.985 | relative viability (HCC-827; first compound 0.01 µM): 1.15 | relative viability (HCC-827; first compound 0.03162 µM): 0.829 | relative viability (HCC-827; first compound 0.1 µM): 0.965 | relative viability (LXF-289; first compound 0.001 µM): 0.837 | relative viability (LXF-289; first compound 0.003162 µM): 0.946 | relative viability (LXF-289; first compound 0.01 µM): 0.858 | relative viability (LXF-289; first compound 0.03162 µM): 0.667 | relative viability (LXF-289; first compound 0.1 µM): 0.335 | relative viability (UMC-11; first compound 0.001 µM): 0.801 | relative viability (UMC-11; first compound 0.003162 µM): 1.03 | relative viability (UMC-11; first compound 0.01 µM): 0.972 | relative viability (UMC-11; first compound 0.1 µM): 0.287 | relative viability (LK-2; first compound 0.001 µM): 0.614 | relative viability (LK-2; first compound 0.003162 µM): 0.451 | relative viability (LK-2; first compound 0.01 µM): 0.577 | relative viability (LK-2; first compound 0.03162 µM): 0.594 | relative viability (LK-2; first compound 0.1 µM): 0.608 | relative viability (NCI-H1993; first compound 0.001 µM): 0.984 | relative viability (NCI-H1993; first compound 0.003162 µM): 0.682 | relative viability (NCI-H1993; first compound 0.01 µM): 0.789 | relative viability (NCI-H1993; first compound 0.03162 µM): 0.917 | relative viability (NCI-H1993; first compound 0.1 µM): 0.673 | relative viability (LCLC-97TM1; first compound 0.001 µM): 0.184 | relative viability (LCLC-97TM1; first compound 0.003162 µM): 0.213 | relative viability (LCLC-97TM1; first compound 0.01 µM): 0.16 | relative viability (LCLC-97TM1; first compound 0.03162 µM): 0.167 | relative viability (LCLC-97TM1; first compound 0.1 µM): 0.123 | relative viability (EPLC-272H; first compound 0.001 µM): 0.273 | relative viability (EPLC-272H; first compound 0.003162 µM): 0.308 | relative viability (EPLC-272H; first compound 0.01 µM): 0.258 | relative viability (EPLC-272H; first compound 0.03162 µM): 0.338 | relative viability (EPLC-272H; first compound 0.1 µM): 0.258 | relative viability (LU99A; first compound 0.001 µM): 0.295 | relative viability (LU99A; first compound 0.003162 µM): 0.412 | relative viability (LU99A; first compound 0.01 µM): 0.328 | relative viability (LU99A; first compound 0.03162 µM): 0.342 | relative viability (LU99A; first compound 0.1 µM): 0.277 | relative viability (SW 1573; first compound 0.001 µM): 0.486 | relative viability (SW 1573; first compound 0.003162 µM): 0.652 | relative viability (SW 1573; first compound 0.01 µM): 0.5 | relative viability (SW 1573; first compound 0.03162 µM): 0.427 | relative viability (SW 1573; first compound 0.1 µM): 0.588 | relative viability (ChaGo-K-1; first compound 0.001 µM): 1.22 | relative viability (ChaGo-K-1; first compound 0.003162 µM): 0.581 | relative viability (ChaGo-K-1; first compound 0.01 µM): 0.654 | relative viability (ChaGo-K-1; first compound 0.03162 µM): 0.315 | relative viability (ChaGo-K-1; first compound 0.1 µM): 0.444 | relative viability (NCI-H1355; first compound 0.001 µM): 0.399 | relative viability (NCI-H1355; first compound 0.003162 µM): 0.468 | relative viability (NCI-H1355; first compound 0.01 µM): 0.371 | relative viability (NCI-H1355; first compound 0.03162 µM): 0.421 | relative viability (NCI-H1355; first compound 0.1 µM): 0.19 | relative viability (NCI-H3122; first compound 0.001 µM): 0.666 | relative viability (NCI-H3122; first compound 0.003162 µM): 0.846 | relative viability (NCI-H3122; first compound 0.01 µM): 0.808 | relative viability (NCI-H3122; first compound 0.03162 µM): 0.473 | relative viability (NCI-H3122; first compound 0.1 µM): 0.436 | relative viability (EKVX; first compound 0.001 µM): 0.486 | relative viability (EKVX; first compound 0.003162 µM): 0.588 | relative viability (EKVX; first compound 0.01 µM): 0.531 | relative viability (EKVX; first compound 0.03162 µM): 0.344 | relative viability (EKVX; first compound 0.1 µM): 0.552 | relative viability (NCI-H2228; first compound 0.001 µM): 0.27 | relative viability (NCI-H2228; first compound 0.003162 µM): 0.402 | relative viability (NCI-H2228; first compound 0.01 µM): 0.31 | relative viability (NCI-H2228; first compound 0.03162 µM): 0.356 | relative viability (NCI-H2228; first compound 0.1 µM): 0.397 | relative viability (NCI-H2170; first compound 0.001 µM): 0.283 | relative viability (NCI-H2170; first compound 0.003162 µM): 0.306 | relative viability (NCI-H2170; first compound 0.01 µM): 0.296 | relative viability (NCI-H2170; first compound 0.03162 µM): 0.349 | relative viability (NCI-H2170; first compound 0.1 µM): 0.299 | relative viability (SK-LU-1; first compound 0.001 µM): 0.499 | relative viability (SK-LU-1; first compound 0.003162 µM): 0.526 | relative viability (SK-LU-1; first compound 0.01 µM): 0.563 | relative viability (SK-LU-1; first compound 0.03162 µM): 0.366 | relative viability (SK-LU-1; first compound 0.1 µM): 0.499 | relative viability (HOP-62; first compound 0.001 µM): 0.539 | relative viability (HOP-62; first compound 0.003162 µM): 0.902 | relative viability (HOP-62; first compound 0.01 µM): 0.587 | relative viability (HOP-62; first compound 0.03162 µM): 0.63 | relative viability (HOP-62; first compound 0.1 µM): 0.401 | relative viability (PC-3 [JPC-3]; first compound 0.001 µM): 0.791 | relative viability (PC-3 [JPC-3]; first compound 0.003162 µM): 0.88 | relative viability (PC-3 [JPC-3]; first compound 0.01 µM): 0.833 | relative viability (PC-3 [JPC-3]; first compound 0.03162 µM): 0.747 | relative viability (PC-3 [JPC-3]; first compound 0.1 µM): 0.342
